Measurements: US7238775B2, “Receptor(SSTR4)-selective somatostatin analogs” (The Salk Institute for Biological Studies, priority 2002, dated 2007)
Values joined by “and” are separate entries in the source; they are usually repeats but may differ in a detail not shown here. Equal values may be shown once. Numbered stars: 1 amine (or outer) side, 2 acyl side, 3 side chain; on linkers, the order of the positions; unused ones are H or OH. Bridge positions count the residues as written; N and C are the ends. Square brackets hold non-standard residues; d marks the D form. Peptide text beside a SMILES is read from it. X1 = C[C@H](c1ccc2ccccc2c1)[C@H](N[*:1])C(=O)[*:2]; Phe(4-NH2) = Nc1ccc(C[C@H](N)C(=O)O)cc1; 2Nal = N[C@@H](Cc1ccc2ccccc2c1)C(=O)O

Columns and labels:
Experiment in all cases: Displacement of 125I-[Leu8,D-Trp22,Tyr25]SRIF-28 from cloned receptor, membrane pellet autoradiography
Type in all cases: binding
hSSTR3 = target: T1, hSSTR3 (Homo sapiens, UniProt P32745)
T1 construct: expressed in transfected cells; host or cells: CHO-K1 cells and CCL39 cells
T1 sequence (P32745 whole entry): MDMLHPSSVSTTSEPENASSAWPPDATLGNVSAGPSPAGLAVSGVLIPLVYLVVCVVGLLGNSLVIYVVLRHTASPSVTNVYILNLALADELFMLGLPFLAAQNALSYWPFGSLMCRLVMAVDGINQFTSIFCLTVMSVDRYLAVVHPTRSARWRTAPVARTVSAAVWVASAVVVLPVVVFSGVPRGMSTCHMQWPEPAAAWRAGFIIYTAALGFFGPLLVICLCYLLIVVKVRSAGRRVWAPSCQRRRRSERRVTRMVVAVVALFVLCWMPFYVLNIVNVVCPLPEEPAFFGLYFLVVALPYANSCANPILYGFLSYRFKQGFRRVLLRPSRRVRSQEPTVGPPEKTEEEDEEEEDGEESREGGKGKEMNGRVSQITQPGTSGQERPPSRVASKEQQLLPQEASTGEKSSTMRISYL
Procedure: (§1) In vitro Bioassay: The effects of the various somatostatin analogs are tested in vitro for their ability to bind to isolated cloned receptors expressed on CHO-K1 cells and CCL39 cells. CHO-K1 cells are grown in Ham's F-12 medium, and CCL39 cells are grown in Dulbecco's modified Eagle's medium/Ham's F-12(1:1) mix, supplemented with 10% fetal bovine serum, 100 U/ml penicillin and 100 μg/ml streptomycin, in humidified air containing 5% CO2 at 37° C.
(§2) Cells are washed twice with and scraped into ice-cold 0.05 M Tris-HCl (pH 7.4), collected by centrifugation, and homogenized using a rotor/stator/system in the same buffer. After centrifugation at 120 g for 5 min at 4° C., the supernatant is collected and centrifuged again at 48,000 g for 30 min at 4° C. The resulting pellet is resuspended in ice-cold Tris buffer, transferred into a microfuge tube, and centrifuged at 20,000 g for 15 min at 4° C. After withdrawal of the supernatant, the membrane pellet is stored at −80° C.
(§3) Receptor autoradiography is performed on 20 μm thick cryostat sections of the membrane pellets, mounted on microscope slides, and then stored at −20° C. […] Increasing concentrations of the unlabeled peptide are used ranging from 0.1-1000 nM. […] IC50 values are calculated after quantification of the data using a computer-assisted image processing system as known in this art.
(§4) The numbers in parentheses indicate the number of times the particular binding test was carried out.

hSSTR4 = target: T2, hSSTR4 (Homo sapiens, UniProt P31391); conditions: for IC50: inhibition of 125I-SRIF-28 radioligand binding, cloned human receptor
T2 construct: expressed in transfected cells; host or cells: CHO-K1 cells and CCL39 cells
T2 sequence (P31391 whole entry): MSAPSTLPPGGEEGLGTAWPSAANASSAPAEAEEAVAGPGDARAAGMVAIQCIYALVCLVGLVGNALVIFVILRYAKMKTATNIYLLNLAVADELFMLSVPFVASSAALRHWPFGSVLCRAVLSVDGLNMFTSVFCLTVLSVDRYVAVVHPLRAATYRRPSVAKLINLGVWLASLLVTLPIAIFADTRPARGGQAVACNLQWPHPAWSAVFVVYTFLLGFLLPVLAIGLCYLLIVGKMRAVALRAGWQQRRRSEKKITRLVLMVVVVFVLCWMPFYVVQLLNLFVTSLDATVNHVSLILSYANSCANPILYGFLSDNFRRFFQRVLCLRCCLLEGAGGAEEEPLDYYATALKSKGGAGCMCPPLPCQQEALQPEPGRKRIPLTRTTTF
Procedure: as §1, §2, §3, §4

hSSTR2 = target: T3, hSSTR2 (Homo sapiens, UniProt P30874)
T3 construct: expressed in transfected cells; host or cells: CHO-K1 cells and CCL39 cells
T3 sequence (P30874 whole entry): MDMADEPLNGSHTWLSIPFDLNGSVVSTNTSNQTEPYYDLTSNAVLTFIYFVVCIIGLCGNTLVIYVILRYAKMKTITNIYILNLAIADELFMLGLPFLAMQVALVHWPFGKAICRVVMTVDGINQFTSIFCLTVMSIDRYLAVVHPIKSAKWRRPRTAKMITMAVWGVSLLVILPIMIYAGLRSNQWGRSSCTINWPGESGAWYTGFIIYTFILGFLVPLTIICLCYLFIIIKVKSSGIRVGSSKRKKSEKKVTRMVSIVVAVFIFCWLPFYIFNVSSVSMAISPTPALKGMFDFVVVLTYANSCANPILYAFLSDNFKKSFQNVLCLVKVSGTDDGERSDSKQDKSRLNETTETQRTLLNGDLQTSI
Procedure: as §1, §2, §3, §4

hSSTR5 = target: T4, hSSTR5 (Homo sapiens, UniProt P35346)
T4 construct: expressed in transfected cells; host or cells: CHO-K1 cells and CCL39 cells
T4 sequence (P35346 whole entry): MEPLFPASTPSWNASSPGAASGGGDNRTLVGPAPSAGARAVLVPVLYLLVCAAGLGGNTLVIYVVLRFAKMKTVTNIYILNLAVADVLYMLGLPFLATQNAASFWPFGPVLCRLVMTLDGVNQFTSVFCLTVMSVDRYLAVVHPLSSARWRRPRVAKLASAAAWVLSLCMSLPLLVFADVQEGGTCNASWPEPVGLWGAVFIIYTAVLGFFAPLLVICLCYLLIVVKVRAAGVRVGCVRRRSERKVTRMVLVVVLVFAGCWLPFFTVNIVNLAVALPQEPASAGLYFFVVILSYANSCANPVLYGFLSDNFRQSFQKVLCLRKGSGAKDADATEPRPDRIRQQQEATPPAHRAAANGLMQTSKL
Procedure: as §1, §2, §3, §4

hSSTR1 = target: T5, hSSTR1 (Homo sapiens, UniProt P30872); conditions: for IC50: inhibition of 125I-SRIF-28 radioligand binding, cloned human receptor
T5 construct: expressed in transfected cells; host or cells: CHO-K1 cells and CCL39 cells
T5 sequence (P30872 whole entry): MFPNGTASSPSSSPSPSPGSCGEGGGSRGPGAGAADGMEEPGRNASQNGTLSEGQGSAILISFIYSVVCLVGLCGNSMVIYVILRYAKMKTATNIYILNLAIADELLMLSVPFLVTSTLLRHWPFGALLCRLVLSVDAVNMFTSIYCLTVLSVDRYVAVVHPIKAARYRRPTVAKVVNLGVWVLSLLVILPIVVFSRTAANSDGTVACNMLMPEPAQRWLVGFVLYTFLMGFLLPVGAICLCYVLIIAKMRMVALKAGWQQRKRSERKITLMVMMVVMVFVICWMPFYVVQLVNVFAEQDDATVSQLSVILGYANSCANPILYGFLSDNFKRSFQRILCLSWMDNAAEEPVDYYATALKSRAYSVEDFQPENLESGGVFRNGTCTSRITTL
Procedure: as §1, §2
Receptor autoradiography is performed on 20 μm thick cryostat sections of the membrane pellets, mounted on microscope slides, and then stored at −20° C. […] […] […] IC50 values are calculated after quantification of the data using a computer-assisted image processing system as known in this art.
as §4

[1] = inhibition of 125I-SRIF-28 radioligand binding, cloned human receptor

SMILES | selectivity in binding to SSTR4 compared with the other 4 receptors (in words) (hSSTR4) | IC50 (hSSTR4) | selectivity for SSTR4 over the closest other receptor (hSSTR4) | IC50 (hSSTR1) | other results
C[C@@H]1NC(=O)[C@H](Cc2ccccc2)NC(=O)[C@@H](N)CSSC[C@@H](C(=O)O)NC(=O)[C@H](Cc2ccccc2)NC(=O)[C@H]([C@@H](C)O)NC(=O)[C@H](CCCCN)NC(=O)[C@H](Cc2c[nH]c3ccccc23)NC1=O [Peptide No. 12] (H-CFAWKTFC-OH; disulfide 1-8) | likewise selective | ~0.84 nM and 0.84 nM | – | – | concentration below which it does not bind to human SSTR3 (hSSTR3): ≥ 750 nM; concentration below which it does not bind to human SSTR2 (hSSTR2): ≥ 750 nM; concentration below which it does not bind to human SSTR5 (hSSTR5): ≥ 630 nM; concentration below which it does not bind to human SSTR1 (hSSTR1): ≥ 750 nM
C[C@H](c1ccc2ccccc2c1)[C@@H]1NC(=O)[C@H](Cc2ccc(O)cc2)NC(=O)[C@H](Cc2ccccc2)NC(=O)[C@H](N)CSSC[C@@H](C(=O)O)NC(=O)[C@H](Cc2ccccc2)NC(=O)[C@H]([C@@H](C)O)NC(=O)[C@H](CCCCN)NC1=O [Peptide No. 16A, (cyclo)H-D-Cys-Phe-Tyr-threo-(2S,3R)C^βMe-2Nal-Lys-Thr-Phe-Cys-OH] (H-[dC]FY[X1]KTFC-OH; disulfide 1-8) | – | 3.5 ± 0.5 nM | more than 100 times | > 10000 nM | –
C[C@@H](O)[C@@H]1NC(=O)[C@H](CCCCN)NC(=O)[C@H](Cc2ccc3ccccc3c2)NC(=O)[C@H](Cc2ccc(N)cc2)NC(=O)[C@H](Cc2ccccc2)NC(=O)[C@@H](N)CSSC[C@@H](C(=O)O)NC(=O)[C@H](Cc2ccccc2)NC1=O [Peptide No. 5, (cyclo)H-Cys-Phe-4Aph-2Nal-Lys-Thr-Phe-Cys-OH] (H-CF[Phe(4-NH2)][2Nal]KTFC-OH; disulfide 1-8) | – | – | – | – | IC50 (hSSTR2; [1]): > 1000 nM
C[C@@H](O)[C@@H]1NC(=O)[C@H](CCCCN)NC(=O)[C@H](Cc2c[nH]c3ccccc23)NC(=O)[C@H](Cc2ccc(N)cc2)NC(=O)[C@H](Cc2ccccc2)NC(=O)[C@@H](N)CSSC[C@@H](C(=O)O)NC(=O)[C@H](Cc2ccccc2)NC1=O [Peptide No. 1, (cyclo)H-Cys-Phe-4Aph-Trp-Lys-Thr-Phe-Cys-OH] | selectively bound to SSTR4 | ~1.2 nM and 1.2 nM | – | – | effect on binding of the SRIF-28 radioligand to SSTR3 (hSSTR3; at 100 nM): very minimal effect; effect on binding of the SRIF-28 radioligand to human SSTR2 (hSSTR2; at 100 nM): minimal effects; effect on binding of the SRIF-28 radioligand to SSTR5 (hSSTR5; at 100 nM): very minimal effect; IC50 (hSSTR5; [1]): 1000 nM; effect on binding of the SRIF-28 radioligand to human SSTR1 (hSSTR1; at 100 nM): minimal effects
C[C@H](c1ccc2ccccc2c1)[C@@H]1NC(=O)[C@H](Cc2ccc(O)cc2)NC(=O)[C@H](Cc2ccccc2)NC(=O)[C@@H](N)CSSC[C@@H](C(=O)O)NC(=O)[C@H](Cc2ccccc2)NC(=O)[C@H]([C@@H](C)O)NC(=O)[C@H](CCCCN)NC1=O [Peptide No. 17A, (cyclo)H-Cys-Phe-Tyr-threo-(2S,3R)C^βMe-2Nal-Lys-Thr-Phe-Cys-OH] (H-CFY[X1]KTFC-OH; disulfide 1-8) | show selectivity for binding to SSTR4 | – | ~100 times | > 1000 nM | –
